Assay results published in article PMC12217109, “Development of novel benzamide class I selective lysine deacetylase inhibitors as potent anticancer agents” (Journal of Enzyme Inhibition and Medicinal Chemistry, 2025).

Key:
[1] = tested on: MCF7 breast cancer cell line; experiment: MTT cellular viability assay, MCF7; format: cell-based; settings: Homo sapiens, 96 h
Experimental: The human A2780 ovarian (#93112519) and MCF-7 breast (#86012803) cancer cell lines were obtained from the European Cell Culture Collection (ECACC; Salisbury, UK). The human cardiac ventricular AC16 cell line (#SCC109) was obtained from Merck/Millipore (UK). The A2780 and MCF-7 cell lines were maintained in RPMI-1640 medium and the AC16 cell line was maintained in DMEM/F12 medium. Culture medium of all three cell lines was supplemented with 10% heat-inactivated foetal bovine serum (FBS) and 2 mM L-glutamine, with the cells maintained in a humidified 5% CO2 atmosphere at 37 °C. The media was changed every 72h and the cells passaged via trypsinisation (Trypsin EDTA, 0.25%) before reaching confluency.
Cytotoxicity of each compound against the cell lines was assessed using the MTT assay. Cells were seeded in three replicates into 96-well plates at a density of 2 × 10^3/well for 24h to facilitate cell attachment. Media was replaced with that containing either test compound (0–10µM) for A2780 and MCF7 cell lines, single concentration (10 µM) test compound for AC16 cell line, or drug vehicle (dimethyl sulphoxide; DMSO) and the cells incubated for a further 96 h at 37 °C in a humidified 5% CO2 atmosphere. […] Chemosensitivity was thereafter assessed using a standard 3-[4, 5-dimethylthiazolyl]-2,5-diphenyltetrazolium bromide (MTT) assay, with the optical density determined at 540 nm as an indicator of cellular viability.

HDAC11 = HDAC11 (Homo sapiens, UniProt Q96DB2); parameters: method as in PMID 32608981; settings: read-out: HDAC11 IC50; compiled data, ref [13]; cited from earlier work
HeLa nuclear KDACs = tested on: HeLa nuclear KDACs; parameters: method as in Beckers et al.[46]; settings: ref Beckers et al.[46]; read-out: HDAC Inhibition IC50; cited from earlier work
class I HDACs = tested on: class I HDACs; parameters: method as in PMID 31938461; settings: ref [91]; cited from earlier work

HDAC11, sequence (Q96DB2 whole entry): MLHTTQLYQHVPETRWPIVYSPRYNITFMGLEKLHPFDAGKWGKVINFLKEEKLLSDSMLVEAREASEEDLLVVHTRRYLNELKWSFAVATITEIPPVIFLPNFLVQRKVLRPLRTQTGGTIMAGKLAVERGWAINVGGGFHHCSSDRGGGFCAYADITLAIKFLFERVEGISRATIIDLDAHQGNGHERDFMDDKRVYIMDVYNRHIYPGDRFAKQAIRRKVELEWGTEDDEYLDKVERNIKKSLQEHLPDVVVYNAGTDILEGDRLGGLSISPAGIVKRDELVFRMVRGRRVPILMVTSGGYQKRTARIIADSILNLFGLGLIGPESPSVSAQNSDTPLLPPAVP

For `CC(=O)Nc1ccc(C(=O)Nc2ccccc2N)cc1` [Compound 2, Tacedinaline], the IC50 [1] is listed as 11.6 ± 1.1 µM, the IC50 (HDAC11) is listed as over 10 µM and the IC50 (HeLa nuclear KDACs) is listed as 8.5 ± 5.4 µM.

For `Nc1cc(F)ccc1NC(=O)c1ccc(CNC(=O)/C=C/c2cccnc2)cc1` [chidamide], the IC50 (class I HDACs) is given as 0.11 to 0.33 µM.
